Source: patent US20240310365A1, “DEVICE FOR EVALUATING INNER EAR DRUG DELIVERY” (North Carolina State University, priority 2023, published 2024)

Columns and labels:
porcine RWM = test: Ex-vivo porcine RWM device permeability measurement; type: in vitro ADME; conditions: Dex ~400 μg/ml
[1] = humans; after intratympanic DSP 0.4-1.8 ml of 4 mg/ml; cited from earlier work

C[C@@H]1C[C@H]2[C@@H]3CCC4=CC(=O)C=C[C@]4(C)[C@@]3(F)[C@@H](O)C[C@]2(C)[C@@]1(O)C(=O)CO [Dex, dexamethasone]
time for passage through the porcine RWM (porcine RWM): < 0.5 h | dexamethasone concentration in perilymph [1]: about 1.4 μg/
